Test system: ear swelling
Settings: conventional form, 200 mg dose (highest dosage used), topical, after 6 hours of exposure, croton oil
Description: Croton oil was applied to the left and right ears of five animals to cause inflammation. Two hours later, a nanoparticle preparation of Celebrex or conventional form of Celebrex® was applied topically to the left or right ear.

Cc1ccc(-c2cc(C(F)(F)F)nn2-c2ccc(S(N)(=O)=O)cc2)cc1 [Celebrex® delivered in conventional form]
reduction in ear swelling: 60%

Reference: patent US7763663B2, “Polysaccharide-containing block copolymer particles and uses thereof” (priority 2001, dated 2010)
